{"source": "patent US20250295619A1", "about": "“Use of Salvianolic Acid E in the Preparation of Drugs Targeting Senescent Cells, Inhibiting Tumors or Extending Lifespan” (Shanghai Institute of Nutrition and Health, Chinese Academy …, priority 2024, published 2025)", "assay_type_in_all_cases": "cell-based, human", "key": {"PSC27 [1]": {"tested_on": "PSC27", "assay": "CCK8 survival of proliferating and senescent PSC27 cells", "experimental": "(§1) To cause cell damage, 50 μg/mL bleomycin (bleomycin, BLEO) was added to the culture medium when PSC27 cells grew to 80% (abbreviated as PSC27-CTRL). After 12 hours of drug treatment, the cells were simply washed 3 times with PBS, left in the culture medium for 7-10 days, and then the subsequent experiments were performed.\nPharmacodynamic analysis was conducted on an organic chemical drug library (TOPSCIENCE) with a total of 1470 small molecule compounds, mostly derived from medicinal plants and had anti-senescence potential. Each product was diluted to a 96-well plate according to a certain concentration gradient, and the density was 5000 cells per well. The medium uses DMEM, and the working concentration of natural product (or compound) is generally controlled at […] to 1 mM. After 3-7 days of drug treatment, cell proliferation was measured with CCK-8 Cell Counting Kit (based on WST-8 principle, Vazyme), and cell apoptosis activity was determined with Caspase 3/7 Activity Kit (Promega)."}, "PSC27 [2]": {"tested_on": "PSC27", "assay": "Population doubling (PD) test of PSC27", "experimental": "The cells were damaged by BLEO at passage 10 (p10), and then SAE was added to the medium at day 8. The effect SAE on cell proliferation potential is determined by comparative analysis of the population doubling (PD) of CTRL group, BLEO group, SAE group and BLEO/SAE group. ^, P>0.05; ***P<0.001."}, "PSC27 [3]": {"tested_on": "PSC27", "assay": "SA-β-Gal staining of PSC27 cells (bleomycin-induced senescence, increasing SAE concentration)", "experimental": "The P value of positive proportion of cells in these experimental groups for SAE at the concentrations of 100 μM, 200 μM, 400 μM, 800 μM, 1600 μM, 2000 μM and 3000 μM are statistically significant compared with the data at 0 μM.\nas §1\nSenescence-associated B-galactosidase (SA-β-Gal) staining was performed following a previously reported procedure (Debacq-Chainiaux, et. al., 2009). Briefly, cells in culture dishes were washed with PBS and fixed at room temperature. Cells were fixed in 2% formaldehyde and 0.2% glutaraldehyde for 3 minutes. SA-β-Gal was used for staining with freshly prepared staining solution overnight at 37° C. Images were taken on the next day and the percentage of positive cells per unit area was calculated."}}, "note": "“Also recorded” adds a separate entry of the source."}
{"smiles": "O=C(/C=C/c1ccc(O)c(O)c1/C(=C\\c1ccc(O)c(O)c1)C(=O)O[C@H](Cc1ccc(O)c(O)c1)C(=O)O)O[C@H](Cc1ccc(O)c(O)c1)C(=O)O", "note": "[SAE, salvianolic acid E]", "values": [{"measurement": "percentage of surviving senescent cells", "setting": "PSC27 [1]; SAE 2000 μM", "result": "approximately 10%"}, {"measurement": "survival of proliferating cells", "setting": "PSC27 [1]; SAE 3000 μM", "result": "not significantly reduced"}, {"measurement": "concentration from which significant death of senescent cells is induced", "setting": "PSC27 [1]; vs control proliferating cells", "result": 200, "unit": "µM"}, {"measurement": "PD in proliferating cells", "setting": "PSC27 [2]; SAE alone", "result": "does not affect PD"}, {"measurement": "population doubling (PD) ability of stromal cells after genotoxic treatment combined with SAE", "setting": "PSC27 [2]; combination with genotoxic drug (BLEO) vs genotoxic drug alone", "result": "significant increase; also recorded: significantly increased"}, {"measurement": "SAE concentration at which senescent cells begin to be eliminated", "setting": "PSC27 [3]; SA-β-Gal staining", "result": 200, "unit": "µM"}, {"measurement": "concentration at which the killing effect on senescent cells reaches a threshold", "setting": "PSC27 [3]; SA-β-Gal staining", "result": 2000, "unit": "µM"}, {"measurement": "killing effect on senescent cells", "setting": "PSC27 [3]; SAE increased to 3000 μM", "result": "not further enhanced"}]}
